According to ChEMBL document CHEMBL1201862, “PubChem BioAssay data set” (2004):
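Exposure lasted 48 hours, with cells grown in 96-well plates and compounds tested at five concentrations. GI50 is the concentration that inhibits growth by half.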 The source made the active and inactive calls. Rule as the data show it: active = GI50 up to about 1.1 µM and inactive = higher.

Legend:
Assay in all cases: NCI-60 cell line screen, 48 h
CAKI-1 = tested on: CAKI-1
COLO 205 = tested on: COLO 205
HOP-62 = tested on: HOP-62
HOP-92 = tested on: HOP-92
K562 = tested on: K562
KM12 = tested on: KM12
LOX IMVI = tested on: LOX IMVI
M14 = tested on: M14
Malme-3M = tested on: Malme-3M
NCI-H23 = tested on: NCI-H23
NCI-H460 = tested on: NCI-H460
NCI-H522 = tested on: NCI-H522
OVCAR-3 = tested on: OVCAR-3
OVCAR-4 = tested on: OVCAR-4
SK-MEL-28 = tested on: SK-MEL-28
SK-OV-3 = tested on: SK-OV-3
SW-620 = tested on: SW-620
UO-31 = tested on: UO-31
A498 = tested on: A498

Measured: GI50

COc1ccc(-c2cc(O)c3cc4c(cc3n2)OCO4)cc1OC
inactive: CAKI-1 > 100 µM | COLO 205 > 100 µM | HOP-62 > 100 µM | HOP-92 > 100 µM | K562 > 100 µM | KM12 > 100 µM | LOX IMVI > 100 µM | M14 > 100 µM | Malme-3M > 100 µM | NCI-H23 > 100 µM | NCI-H460 > 100 µM | NCI-H522 > 100 µM | OVCAR-3 > 100 µM | OVCAR-4 > 100 µM | SK-MEL-28 > 100 µM | SK-OV-3 > 100 µM | SW-620 > 100 µM | UO-31 > 100 µM

CC1=NN(C(=O)Cc2ccccc2)C(=O)/C1=C\c1cccc(O)c1
inactive: CAKI-1 > 100 µM | COLO 205 > 100 µM | HOP-62 > 100 µM | K562 > 100 µM | KM12 > 100 µM | LOX IMVI > 100 µM | M14 > 100 µM | Malme-3M > 100 µM | NCI-H23 > 100 µM | NCI-H460 > 100 µM | NCI-H522 > 100 µM | OVCAR-3 > 100 µM | OVCAR-4 > 100 µM | SK-MEL-28 > 100 µM | SW-620 > 100 µM | UO-31 > 100 µM

CCSc1[nH]c(NC(=S)NC(=O)c2ccccc2Cl)c(C(N)=O)c1C(N)=O
inactive: CAKI-1 > 10 µM | COLO 205 > 10 µM | HOP-62 > 10 µM | HOP-92 > 10 µM | K562 > 10 µM | KM12 > 10 µM | LOX IMVI > 10 µM | M14 > 10 µM | Malme-3M > 10 µM | NCI-H23 > 10 µM | OVCAR-4 > 10 µM | SK-MEL-28 > 10 µM | SK-OV-3 > 10 µM | SW-620 > 10 µM

NC1=NN(c2ccccc2)C(=O)C1C(=O)C(=O)NC1C2CC3CC(C2)CC1C3 (stereo not given)
inactive: COLO 205 > 100 µM | HOP-62 > 100 µM | HOP-92 > 100 µM | K562 > 100 µM | KM12 > 100 µM | LOX IMVI > 100 µM | M14 > 100 µM | Malme-3M > 100 µM | NCI-H23 > 100 µM | NCI-H460 > 100 µM | OVCAR-3 > 100 µM | OVCAR-4 > 100 µM | SK-MEL-28 > 100 µM | SK-OV-3 24.9 µM | SW-620 > 100 µM | UO-31 > 100 µM

C/C(=N\NC(=O)CC(=O)N(C(=O)c1ccc(Cl)cc1)c1ccc(C)cc1)c1ccccc1O
inactive: A498 73.6 µM | CAKI-1 64 µM | COLO 205 16.9 µM | HOP-62 37 µM | K562 > 100 µM | KM12 9.68 µM | M14 81.7 µM | Malme-3M > 100 µM | NCI-H23 > 100 µM | NCI-H460 21.4 µM | NCI-H522 36.6 µM | OVCAR-3 14 µM | OVCAR-4 1.67 µM | SK-MEL-28 61.8 µM | SK-OV-3 > 100 µM | SW-620 > 100 µM | UO-31 4.82 µM

COc1ccccc1-c1cc(O)c2cc3c(cc2n1)OCO3
inactive: A498 11.9 µM | COLO 205 17.2 µM | HOP-62 14.3 µM | K562 8.65 µM | LOX IMVI 52.4 µM | Malme-3M 6.82 µM | NCI-H23 54.6 µM | NCI-H460 30.3 µM | OVCAR-4 25.5 µM | SK-MEL-28 > 100 µM | SW-620 17.7 µM | UO-31 65.2 µM

N#Cc1ccc(C2SCc3nc4ccccc4n32)cc1 (stereo not given)
inactive: A498 58.7 µM | CAKI-1 > 100 µM | COLO 205 > 100 µM | HOP-62 98.6 µM | K562 41.6 µM | KM12 > 100 µM | M14 54.2 µM | Malme-3M > 100 µM | NCI-H23 25.6 µM | NCI-H460 > 100 µM | NCI-H522 12.3 µM | OVCAR-3 > 100 µM | OVCAR-4 83.2 µM | SK-MEL-28 42.4 µM | SK-OV-3 > 100 µM | SW-620 > 100 µM | UO-31 15.2 µM

COC1CC(Br)(C#N)C1 (stereo not given)
inactive: CAKI-1 > 100 µM | COLO 205 > 100 µM | HOP-62 > 100 µM | HOP-92 > 100 µM | K562 > 100 µM | KM12 > 100 µM | M14 > 100 µM | Malme-3M > 100 µM | NCI-H23 > 100 µM | OVCAR-3 > 100 µM | OVCAR-4 > 100 µM | SK-MEL-28 > 100 µM | SK-OV-3 > 100 µM | UO-31 > 100 µM

O=C(NO)c1ccc([N+](=O)[O-])cc1
inactive: A498 21.9 µM | CAKI-1 61 µM | COLO 205 31.1 µM | HOP-62 29.3 µM | K562 31 µM | KM12 64.9 µM | LOX IMVI 40.8 µM | M14 40.9 µM | Malme-3M 26.9 µM | NCI-H23 36.6 µM | NCI-H460 50.2 µM | NCI-H522 21 µM | OVCAR-3 44.7 µM | SK-MEL-28 23.4 µM | SK-OV-3 > 100 µM | SW-620 50.8 µM | UO-31 24.8 µM

COc1cc(C(C)O)c[n+](CCc2c[nH]c3ccccc23)c1 (stereo not given)
inactive: A498 > 100 µM | CAKI-1 > 100 µM | COLO 205 72.8 µM | HOP-62 > 100 µM | K562 > 100 µM | KM12 > 100 µM | LOX IMVI > 100 µM | M14 > 100 µM | Malme-3M > 100 µM | NCI-H23 > 100 µM | NCI-H460 > 100 µM | NCI-H522 83.9 µM | OVCAR-3 66.5 µM | OVCAR-4 > 100 µM | SW-620 > 100 µM | UO-31 > 100 µM

CC(C)C1=CC23CCC4C(C)(C(=O)O)CCCC4(C)C2CC1C1C(=O)N(c2ccccc2N2C(=O)C4C5CC6C7(C)CCCC(C)(C(=O)O)C7CCC6(C=C5C(C)C)C4C2=O)C(=O)C13 (stereo not given)
inactive: A498 2.93 µM | COLO 205 4.57 µM | HOP-62 4.67 µM | HOP-92 17.9 µM | K562 6.58 µM | KM12 3.09 µM | M14 5.24 µM | Malme-3M 13.1 µM | NCI-H23 2.47 µM | NCI-H522 8.73 µM | OVCAR-3 10.9 µM | OVCAR-4 18 µM | SK-MEL-28 7.89 µM | SW-620 12.6 µM | UO-31 18.2 µM

CN(C)Cc1[nH]c2ccccc2c1C(=O)c1ccccc1
inactive: CAKI-1 > 100 µM | COLO 205 > 100 µM | HOP-62 33 µM | HOP-92 33 µM | K562 91.6 µM | KM12 > 100 µM | M14 > 100 µM | Malme-3M > 100 µM | NCI-H23 > 100 µM | NCI-H460 > 100 µM | NCI-H522 > 100 µM | OVCAR-3 > 100 µM | OVCAR-4 > 100 µM | SK-MEL-28 > 100 µM | SW-620 > 100 µM | UO-31 31.6 µM

COC(=O)c1c2c(cc3c1CC1(Cc4cc5c(c(C(C)=O)c4C1)CCC5)C3)CCC2 (stereo not given)
inactive: CAKI-1 34.2 µM | COLO 205 > 100 µM | HOP-62 42 µM | HOP-92 22.3 µM | K562 35.2 µM | KM12 > 100 µM | LOX IMVI 50.1 µM | M14 > 100 µM | Malme-3M 16.4 µM | NCI-H23 64.1 µM | NCI-H460 36.9 µM | NCI-H522 17 µM | OVCAR-3 > 100 µM | OVCAR-4 36.7 µM | SK-MEL-28 > 100 µM | SW-620 > 100 µM | UO-31 38 µM
